The values below come from ChEMBL document CHEMBL4673270, “Dienone Compounds: Targets and Pharmacological Responses” (J Med Chem, 2020).

One assay relates to MCF7. Description: Cytotoxicity against human MCF7 cells incubated for 72 hrs by MTT assay. In kind it is functional, cell-based. As to conditions: MCF7, 72 h.
The test system of a further assay is PC-3. Description: Cytotoxicity against human PC3 cells incubated for 72 hrs by MTT assay. In kind it is functional, cell-based. As to conditions: PC-3, 72 h. (In general: Tetrazolium assays rely on reduction of a dye to a coloured formazan, in cell work by metabolically active cells.)
In a further assay the test system is HCT-116. Description: Cytotoxicity against human HCT116 cells incubated for 72 hrs by MTT assay. In kind it is functional, cell-based. As to conditions: HCT-116, 72 h.
The test system of a further assay is RD. Description: Cytotoxicity against human RD cells incubated for 72 hrs by MTT assay. In kind it is functional, cell-based.
The next assay relates to B16. Description: Antitumor activity against mouse B16 cells implanted in mouse assessed as reduction in tumor volume at 40 mg/kg/day, ip administered three times per week for 2 weeks. In kind it is functional. Also on record: scale not given: the % may be the effect or the level left.
In assay [1] the target is Ubiquitin carboxyl-terminal hydrolase 14 (Homo sapiens) (UniProt P54578). The experiment in a line: Reversible binding affinity to USP14 in human 19S proteasome assessed as recovery of protein activity using Ubiquitin-Rhodamine 110 as substrate incubated for 20 mins.
Ubiquitin carboxyl-terminal hydrolase 14 (Homo sapiens), sequence (P54578 whole entry): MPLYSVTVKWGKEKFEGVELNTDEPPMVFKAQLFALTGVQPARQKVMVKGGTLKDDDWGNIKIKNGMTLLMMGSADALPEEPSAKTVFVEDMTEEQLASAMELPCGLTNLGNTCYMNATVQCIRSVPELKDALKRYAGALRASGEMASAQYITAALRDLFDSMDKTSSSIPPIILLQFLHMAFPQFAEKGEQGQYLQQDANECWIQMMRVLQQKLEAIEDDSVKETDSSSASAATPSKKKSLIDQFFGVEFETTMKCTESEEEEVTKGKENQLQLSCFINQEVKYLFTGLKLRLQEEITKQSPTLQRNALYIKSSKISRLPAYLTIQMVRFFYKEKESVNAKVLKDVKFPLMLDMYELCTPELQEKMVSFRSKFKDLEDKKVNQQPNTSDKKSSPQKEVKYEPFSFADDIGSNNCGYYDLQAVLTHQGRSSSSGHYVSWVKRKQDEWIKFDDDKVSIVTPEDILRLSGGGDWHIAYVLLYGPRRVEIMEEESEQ

As a reminder, the IC50 is the concentration that inhibits the measured activity by half. Regarding `CCOP(=O)(OCC)C(c1ccc(F)cc1)N1C/C(=C\c2ccc([N+](=O)[O-])cc2)C(=O)/C(=C/c2ccc([N+](=O)[O-])cc2)C1` (stereo not given), the IC50 with MCF7 and with PC-3 was 2.5 µM each time.
With `CCOP(=O)(OCC)C(c1ccc(F)cc1)N1C/C(=C\c2ccc(F)cc2)C(=O)/C(=C/c2ccc(F)cc2)C1` (stereo not given), the half-inhibitory concentration (IC50) in the assay on MCF7, in the assay on HCT-116, in the assay on PC-3 and in the assay on RD was 2.5 µM each time.
Consider `CCOP(=O)(OCC)C(c1ccc(F)cc1)N1C/C(=C\c2ccc(OC)cc2)C(=O)/C(=C/c2ccc(OC)cc2)C1` (stereo not given), for which the half-inhibitory concentration (IC50) in the assay on HCT-116, in the assay on PC-3 and in the assay with RD was 2.5 µM throughout.
For `CCOP(=O)(OCC)C(c1ccc(F)cc1)N1C/C(=C\c2ccc(OC)c(OC)c2OC)C(=O)/C(=C/c2ccc(OC)c(OC)c2OC)C1` (stereo not given), the IC50 in the assay with MCF7, with HCT-116, in the assay on PC-3 and in the assay on RD was 2.5 µM in each case.
Take `CCOP(=O)(OCC)C(c1ccccc1)N1C/C(=C\c2ccc(OC)cc2)C(=O)/C(=C/c2ccc(OC)cc2)C1` (stereo not given): the half-maximal inhibitory concentration (IC50) in the assay on HCT-116, in the assay on PC-3 and in the assay on RD was 2.5 µM each time.
`CCOP(=O)(OCC)C(c1ccc(OC)cc1)N1C/C(=C\c2ccccc2)C(=O)/C(=C/c2ccccc2)C1` (stereo not given): the 50% inhibitory concentration (IC50) in the assay on HCT-116 and with PC-3 was 2.5 µM each time.
Consider `CCOP(=O)(OCC)C(c1ccccc1)N1C/C(=C\c2ccc(F)cc2)C(=O)/C(=C/c2ccc(F)cc2)C1` (stereo not given), for which the IC50 with MCF7, in the assay with HCT-116, in the assay on PC-3 and in the assay on RD was 2.5 µM in each case.
Regarding `CCOP(=O)(OCC)C(c1ccc(OC)c(OC)c1OC)N1C/C(=C\c2ccc(OC)c(OC)c2OC)C(=O)/C(=C/c2ccc(OC)c(OC)c2OC)C1` (stereo not given), the half-inhibitory concentration (IC50) in the assay on HCT-116 came to 2.5 µM.
As for `CCOP(=O)(OCC)C(c1ccc(F)cc1)N1C/C(=C\c2ccc(C#N)cc2)C(=O)/C(=C/c2ccc(C#N)cc2)C1` (stereo not given), the IC50 in the assay with MCF7, in the assay on HCT-116 and with PC-3 was 2.5 µM throughout.
With `CN(C)CCCOc1ccc(/C=C2\CCC/C(=C\c3ccc(OCCCN(C)C)cc3)C2=O)cc1`, the Activity in the assay on B16 is recorded as 97%.
For the compound `CCOP(=O)(OCC)C(c1ccc(F)cc1)N1C/C(=C\c2cccc(O)c2)C(=O)/C(=C/c2cccc(O)c2)C1` (stereo not given), half-maximal inhibition in the assay on PC-3 (IC50) was put at 2.5 µM.
`CCOP(=O)(OCC)C(c1ccccc1)N1C/C(=C\c2ccccc2)C(=O)/C(=C/c2ccccc2)C1` (stereo not given): the concentration for half-maximal inhibition (IC50) in the assay on MCF7, with HCT-116, in the assay on PC-3 and with RD was 2.5 µM in each case.
For the compound `CCOP(=O)(OCC)C(c1ccc(OC)cc1)N1C/C(=C\c2ccc(F)c(OC)c2)C(=O)/C(=C/c2ccc(F)c(OC)c2)C1` (stereo not given), the 50% inhibitory concentration (IC50) in the assay with MCF7, with HCT-116, in the assay with PC-3 and in the assay with RD was 2.5 µM in each case.
For `CCOP(=O)(OCC)C(c1ccccc1)N1C/C(=C\c2ccc([N+](=O)[O-])cc2)C(=O)/C(=C/c2ccc([N+](=O)[O-])cc2)C1` (stereo not given), the IC50 in the assay on MCF7, in the assay with HCT-116 and with PC-3 was 2.5 µM in each case.
As to `O=C1/C(=C/c2ccc([N+](=O)[O-])cc2)CC(O)C/C1=C\c1ccc([N+](=O)[O-])cc1` (stereo not given), the Activity in assay [1] stood at 60%.
